Blank lines part the entries; values can stand above or below the molecule they belong to.
Legend:
Assay in all cases: KINOMEscan competition binding
Conditions in all cases: compound 10.0 µM
[1] = test system: ABL1 (human), P00519 [H396P]
ACVRL1 (human) = ACVRL1 (human) (UniProt P37023)
AKT1 (human) = AKT1 (human) (UniProt P31749)
AKT3 (human) = AKT3 (human) (UniProt Q9Y243)
BMPR2 (human) = BMPR2 (human) (UniProt Q13873)
BMX (human) = BMX (human) (UniProt P51813)
BTK (human) = BTK (human) (UniProt Q06187)
CAMK2A (human) = CAMK2A (human) (UniProt Q9UQM7)
CDK17 (human) = CDK17 (human) (UniProt Q00537)
CDK8 (human) = CDK8 (human) (UniProt P49336)
Chain of CDK8 (human) (P49336 whole entry, looked up): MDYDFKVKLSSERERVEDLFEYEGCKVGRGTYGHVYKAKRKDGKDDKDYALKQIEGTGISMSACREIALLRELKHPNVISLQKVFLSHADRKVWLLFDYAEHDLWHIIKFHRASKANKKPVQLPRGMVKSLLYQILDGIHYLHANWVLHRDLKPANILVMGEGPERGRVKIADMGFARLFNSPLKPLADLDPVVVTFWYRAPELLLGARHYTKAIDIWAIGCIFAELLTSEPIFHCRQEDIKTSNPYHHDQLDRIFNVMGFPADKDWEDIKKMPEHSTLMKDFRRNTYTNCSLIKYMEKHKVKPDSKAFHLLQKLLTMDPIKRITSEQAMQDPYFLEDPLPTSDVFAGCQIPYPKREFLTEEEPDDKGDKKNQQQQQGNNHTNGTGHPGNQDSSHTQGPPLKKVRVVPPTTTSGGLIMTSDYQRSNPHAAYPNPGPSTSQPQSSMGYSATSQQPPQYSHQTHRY

[2] = test system: EGFR (human), P00533 [752-759 del]
[3] = test system: EGFR (human), P00533 [L858R]
EPHA3 (human) = EPHA3 (human) (UniProt P29320)
EPHA7 (human) = EPHA7 (human) (UniProt Q15375)
EPHA8 (human) = EPHA8 (human) (UniProt P29322)
ERBB2 (human) = ERBB2 (human) (UniProt P04626)
FES (human) = FES (human) (UniProt P07332)
FGR (human) = FGR (human) (UniProt P09769)
Chain of FGR (human) (P09769 whole entry, looked up): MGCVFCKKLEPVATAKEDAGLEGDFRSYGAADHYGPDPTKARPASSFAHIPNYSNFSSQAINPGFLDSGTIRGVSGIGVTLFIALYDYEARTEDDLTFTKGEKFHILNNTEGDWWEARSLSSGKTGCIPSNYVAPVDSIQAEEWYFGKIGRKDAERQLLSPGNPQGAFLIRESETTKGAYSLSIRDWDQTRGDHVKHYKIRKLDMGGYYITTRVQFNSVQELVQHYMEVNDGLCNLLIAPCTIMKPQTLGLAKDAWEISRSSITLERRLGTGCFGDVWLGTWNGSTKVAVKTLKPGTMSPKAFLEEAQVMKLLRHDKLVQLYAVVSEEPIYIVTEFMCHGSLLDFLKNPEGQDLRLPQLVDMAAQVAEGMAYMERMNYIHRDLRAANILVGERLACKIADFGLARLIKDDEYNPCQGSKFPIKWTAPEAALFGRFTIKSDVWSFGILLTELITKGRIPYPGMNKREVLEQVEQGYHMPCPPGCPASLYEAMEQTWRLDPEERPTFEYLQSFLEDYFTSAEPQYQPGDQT

FRK (human) = FRK (human) (UniProt P42685)
MAP3K4 (human) = MAP3K4 (human) (UniProt Q9Y6R4)
MAPK7 (human) = MAPK7 (human) (UniProt Q13164)
MAPKAPK2 (human) = MAPKAPK2 (human) (UniProt P49137)
MAPKAPK5 (human) = MAPKAPK5 (human) (UniProt Q8IW41)
NEK1 (human) = NEK1 (human) (UniProt Q96PY6)
NEK6 (human) = NEK6 (human) (UniProt Q9HC98)
PAK4 (human) = PAK4 (human) (UniProt O96013)
PHKG1 (human) = PHKG1 (human) (UniProt Q16816)
PIK3CA (human) = PIK3CA (human) (UniProt P42336)
[4] = test system: PIK3CA (human), P42336 [E545K]
PKN1 (human) = PKN1 (human) (UniProt Q16512)
Chain of PKN1 (human) (Q16512 whole entry, looked up): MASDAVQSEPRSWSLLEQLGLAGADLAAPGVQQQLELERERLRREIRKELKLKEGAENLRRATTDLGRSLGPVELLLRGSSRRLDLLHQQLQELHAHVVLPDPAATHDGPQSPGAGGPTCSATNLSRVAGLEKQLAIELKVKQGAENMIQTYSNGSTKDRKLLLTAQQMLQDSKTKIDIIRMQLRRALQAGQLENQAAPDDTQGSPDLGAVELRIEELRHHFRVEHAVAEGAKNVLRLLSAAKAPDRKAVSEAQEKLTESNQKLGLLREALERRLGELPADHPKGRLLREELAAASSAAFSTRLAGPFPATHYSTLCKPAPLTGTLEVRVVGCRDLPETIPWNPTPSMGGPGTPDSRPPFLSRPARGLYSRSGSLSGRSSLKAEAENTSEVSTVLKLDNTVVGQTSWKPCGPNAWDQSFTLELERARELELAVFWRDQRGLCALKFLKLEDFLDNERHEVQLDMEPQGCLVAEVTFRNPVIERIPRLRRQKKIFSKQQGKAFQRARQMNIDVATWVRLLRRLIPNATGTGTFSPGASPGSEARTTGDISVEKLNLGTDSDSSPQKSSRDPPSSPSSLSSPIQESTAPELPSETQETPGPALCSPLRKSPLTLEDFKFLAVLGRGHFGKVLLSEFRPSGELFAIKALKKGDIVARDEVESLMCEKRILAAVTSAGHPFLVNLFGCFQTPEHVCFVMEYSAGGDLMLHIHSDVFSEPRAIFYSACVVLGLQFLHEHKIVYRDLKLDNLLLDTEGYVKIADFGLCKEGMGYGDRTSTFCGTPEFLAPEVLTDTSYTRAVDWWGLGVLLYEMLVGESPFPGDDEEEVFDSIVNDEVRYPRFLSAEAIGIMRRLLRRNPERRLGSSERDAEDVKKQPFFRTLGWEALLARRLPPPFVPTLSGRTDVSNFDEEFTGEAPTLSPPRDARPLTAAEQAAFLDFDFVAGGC

PTK2B (human) = PTK2B (human) (UniProt Q14289)
PTK6 (human) = PTK6 (human) (UniProt Q13882)
RET (human) = RET (human) (UniProt P07949)
[5] = test system: RET (human), P07949 [M918T]
[6] = test system: RET (human), P07949 [V804L]
Chain of RET (human), P07949 [V804L] (P07949 whole entry V804L, looked up): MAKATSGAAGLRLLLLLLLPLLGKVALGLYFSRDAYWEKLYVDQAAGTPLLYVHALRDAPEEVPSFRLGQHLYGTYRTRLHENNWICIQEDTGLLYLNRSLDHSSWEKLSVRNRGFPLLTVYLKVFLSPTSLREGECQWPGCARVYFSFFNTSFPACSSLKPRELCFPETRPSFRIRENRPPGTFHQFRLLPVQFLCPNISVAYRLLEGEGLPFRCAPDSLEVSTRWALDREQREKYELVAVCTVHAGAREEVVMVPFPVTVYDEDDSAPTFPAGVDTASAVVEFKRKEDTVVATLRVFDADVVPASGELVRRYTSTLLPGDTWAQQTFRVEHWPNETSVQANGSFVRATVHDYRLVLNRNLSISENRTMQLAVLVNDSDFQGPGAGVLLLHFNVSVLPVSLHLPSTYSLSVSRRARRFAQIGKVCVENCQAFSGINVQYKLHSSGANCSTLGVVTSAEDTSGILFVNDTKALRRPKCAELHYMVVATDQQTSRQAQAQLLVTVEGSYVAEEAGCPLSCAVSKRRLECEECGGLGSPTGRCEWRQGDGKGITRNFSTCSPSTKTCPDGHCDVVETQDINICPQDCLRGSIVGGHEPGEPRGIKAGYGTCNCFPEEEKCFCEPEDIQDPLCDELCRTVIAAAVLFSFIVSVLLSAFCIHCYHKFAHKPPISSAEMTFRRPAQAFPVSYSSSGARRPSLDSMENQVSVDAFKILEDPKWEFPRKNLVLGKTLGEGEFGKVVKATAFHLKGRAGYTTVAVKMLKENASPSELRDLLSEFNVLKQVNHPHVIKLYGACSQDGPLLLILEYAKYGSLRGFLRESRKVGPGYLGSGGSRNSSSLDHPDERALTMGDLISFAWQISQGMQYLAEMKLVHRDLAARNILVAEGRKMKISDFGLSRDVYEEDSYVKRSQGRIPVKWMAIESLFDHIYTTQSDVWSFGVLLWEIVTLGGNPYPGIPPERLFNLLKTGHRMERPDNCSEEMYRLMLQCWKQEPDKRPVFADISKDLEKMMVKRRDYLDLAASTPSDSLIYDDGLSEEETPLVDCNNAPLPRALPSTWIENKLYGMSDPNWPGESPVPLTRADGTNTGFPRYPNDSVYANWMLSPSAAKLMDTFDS

[7] = test system: RET (human), P07949 [V804M]
Chain of RET (human), P07949 [V804M] (P07949 whole entry V804M, looked up): as the sequence (P07949 whole entry V804L, looked up) above, with L804M counted along it

SIK1 (human) = SIK1 (human) (UniProt P57059)
SRPK1 (human) = SRPK1 (human) (UniProt Q96SB4)
STK10 (human) = STK10 (human) (UniProt O94804)
Chain of STK10 (human) (O94804 whole entry, looked up): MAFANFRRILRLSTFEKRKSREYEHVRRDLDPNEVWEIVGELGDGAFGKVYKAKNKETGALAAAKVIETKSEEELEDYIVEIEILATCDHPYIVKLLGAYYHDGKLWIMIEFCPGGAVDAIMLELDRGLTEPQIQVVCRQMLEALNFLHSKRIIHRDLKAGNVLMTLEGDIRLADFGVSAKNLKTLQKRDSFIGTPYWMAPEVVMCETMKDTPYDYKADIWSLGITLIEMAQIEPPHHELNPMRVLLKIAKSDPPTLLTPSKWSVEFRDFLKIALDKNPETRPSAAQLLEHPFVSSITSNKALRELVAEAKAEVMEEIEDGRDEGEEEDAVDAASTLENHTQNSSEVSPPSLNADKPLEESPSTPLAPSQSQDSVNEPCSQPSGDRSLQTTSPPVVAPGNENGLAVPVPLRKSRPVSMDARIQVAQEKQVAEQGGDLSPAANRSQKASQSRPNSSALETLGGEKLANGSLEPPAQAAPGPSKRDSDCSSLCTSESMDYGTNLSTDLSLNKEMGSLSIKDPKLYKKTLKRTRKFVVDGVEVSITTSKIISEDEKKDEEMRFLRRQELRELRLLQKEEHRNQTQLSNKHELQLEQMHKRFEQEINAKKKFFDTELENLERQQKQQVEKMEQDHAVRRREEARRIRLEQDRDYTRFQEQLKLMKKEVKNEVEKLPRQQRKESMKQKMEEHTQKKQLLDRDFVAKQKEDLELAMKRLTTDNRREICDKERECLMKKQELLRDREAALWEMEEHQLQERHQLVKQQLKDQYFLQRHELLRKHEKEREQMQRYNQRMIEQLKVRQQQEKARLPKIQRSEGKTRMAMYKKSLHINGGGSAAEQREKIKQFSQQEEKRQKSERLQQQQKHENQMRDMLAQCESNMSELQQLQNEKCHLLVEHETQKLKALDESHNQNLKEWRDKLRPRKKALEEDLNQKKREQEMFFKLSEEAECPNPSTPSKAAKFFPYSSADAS

TNK2 (human) = TNK2 (human) (UniProt Q07912)
TYRO3 (human) = TYRO3 (human) (UniProt Q06418)
ULK3 (human) = ULK3 (human) (UniProt Q6PHR2)
ZAP70 (human) = ZAP70 (human) (UniProt P43403)

Chain of BMPR2 (human) (Q13873 whole entry, looked up): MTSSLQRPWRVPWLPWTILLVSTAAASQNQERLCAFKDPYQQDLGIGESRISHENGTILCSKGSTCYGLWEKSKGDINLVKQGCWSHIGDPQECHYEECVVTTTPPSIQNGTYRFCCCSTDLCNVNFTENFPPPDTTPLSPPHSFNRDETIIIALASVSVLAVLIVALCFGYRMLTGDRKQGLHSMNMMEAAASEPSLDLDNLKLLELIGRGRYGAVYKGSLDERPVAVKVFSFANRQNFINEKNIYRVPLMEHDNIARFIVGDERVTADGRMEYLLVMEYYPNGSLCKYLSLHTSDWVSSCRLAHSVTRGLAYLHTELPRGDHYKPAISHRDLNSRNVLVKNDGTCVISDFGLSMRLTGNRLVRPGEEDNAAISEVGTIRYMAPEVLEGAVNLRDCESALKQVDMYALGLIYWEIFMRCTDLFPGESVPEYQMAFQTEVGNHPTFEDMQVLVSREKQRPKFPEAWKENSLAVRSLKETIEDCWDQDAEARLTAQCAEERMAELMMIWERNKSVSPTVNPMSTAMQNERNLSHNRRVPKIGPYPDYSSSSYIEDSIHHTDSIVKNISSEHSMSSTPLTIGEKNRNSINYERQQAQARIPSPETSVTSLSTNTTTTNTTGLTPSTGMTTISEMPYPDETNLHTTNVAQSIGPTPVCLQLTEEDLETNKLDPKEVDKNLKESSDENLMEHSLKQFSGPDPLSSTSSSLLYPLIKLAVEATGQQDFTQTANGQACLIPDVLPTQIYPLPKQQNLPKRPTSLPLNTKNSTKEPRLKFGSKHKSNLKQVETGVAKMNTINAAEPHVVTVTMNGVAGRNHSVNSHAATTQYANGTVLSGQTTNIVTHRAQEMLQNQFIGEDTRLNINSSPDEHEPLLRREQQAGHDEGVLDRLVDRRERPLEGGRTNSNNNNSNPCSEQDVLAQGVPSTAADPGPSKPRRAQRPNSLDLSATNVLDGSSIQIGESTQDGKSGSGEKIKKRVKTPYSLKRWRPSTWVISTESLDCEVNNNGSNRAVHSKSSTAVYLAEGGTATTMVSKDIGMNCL

SMILES: COc1cc(N2CCC(O)CC2)ccc1Nc1ncc2c(n1)N1CCc3cccc(c31)C(=O)N2C
kinase still bound, per cent of control [1]: 100%
kinase still bound, per cent of control (ACVRL1 (human)): 100%
kinase still bound, per cent of control (AKT1 (human)): 100%
kinase still bound, per cent of control (AKT3 (human)): 61%
kinase still bound, per cent of control (BMPR2 (human)): 100%
kinase still bound, per cent of control (BMX (human)): 93%
kinase still bound, per cent of control (BTK (human)): 78%
kinase still bound, per cent of control (CAMK2A (human)): 80%
kinase still bound, per cent of control (CDK17 (human)): 94%
kinase still bound, per cent of control (CDK8 (human)): 100%
kinase still bound, per cent of control [2]: 81%
kinase still bound, per cent of control [3]: 88%
kinase still bound, per cent of control (EPHA3 (human)): 72%
kinase still bound, per cent of control (EPHA7 (human)): 92%
kinase still bound, per cent of control (EPHA8 (human)): 92%
kinase still bound, per cent of control (ERBB2 (human)): 92%
kinase still bound, per cent of control (FES (human)): 93%
kinase still bound, per cent of control (FGR (human)): 93%
kinase still bound, per cent of control (FRK (human)): 81%
kinase still bound, per cent of control (MAP3K4 (human)): 84%
kinase still bound, per cent of control (MAPK7 (human)): 0.3%
kinase still bound, per cent of control (MAPKAPK2 (human)): 100%
kinase still bound, per cent of control (MAPKAPK5 (human)): 95%
kinase still bound, per cent of control (NEK1 (human)): 60%
kinase still bound, per cent of control (NEK6 (human)): 30%
kinase still bound, per cent of control (PAK4 (human)): 90%
kinase still bound, per cent of control (PHKG1 (human)): 89%
kinase still bound, per cent of control (PIK3CA (human)): 84%
kinase still bound, per cent of control [4]: 88%
kinase still bound, per cent of control (PKN1 (human)): 100%
kinase still bound, per cent of control (PTK2B (human)): 57%
kinase still bound, per cent of control (PTK6 (human)): 100%
kinase still bound, per cent of control (RET (human)): 100%
kinase still bound, per cent of control [5]: 100%
kinase still bound, per cent of control [6]: 100%
kinase still bound, per cent of control [7]: 93%
kinase still bound, per cent of control (SIK1 (human)): 88%
kinase still bound, per cent of control (SRPK1 (human)): 100%
kinase still bound, per cent of control (STK10 (human)): 100%
kinase still bound, per cent of control (TNK2 (human)): 23%
kinase still bound, per cent of control (TYRO3 (human)): 100%
kinase still bound, per cent of control (ULK3 (human)): 100%
kinase still bound, per cent of control (ZAP70 (human)): 65%

SMILES: Nc1cccc(-c2cc(/C=C3\SC(=O)NC3=O)c[nH]c2=O)c1
kinase still bound, per cent of control (BMPR2 (human)): 29%
kinase still bound, per cent of control [2]: 14%
kinase still bound, per cent of control [3]: 29%

SMILES: N=C1NC(=O)/C(=C/c2ccc(-c3ccc(F)cc3O)o2)S1
kinase still bound, per cent of control [4]: 24%
kinase still bound, per cent of control (SRPK1 (human)): 25%

SMILES: CN1C(=O)c2ccccc2N(C)c2nc(NS(=O)(=O)c3ccc(N)cc3)ncc21
kinase still bound, per cent of control [1]: 100%
kinase still bound, per cent of control (ACVRL1 (human)): 100%
kinase still bound, per cent of control (AKT1 (human)): 100%
kinase still bound, per cent of control (AKT3 (human)): 88%
kinase still bound, per cent of control (BMPR2 (human)): 100%
kinase still bound, per cent of control (BMX (human)): 100%
kinase still bound, per cent of control (BTK (human)): 100%
kinase still bound, per cent of control (CAMK2A (human)): 100%
kinase still bound, per cent of control (CDK17 (human)): 100%
kinase still bound, per cent of control (CDK8 (human)): 100%
kinase still bound, per cent of control [2]: 100%
kinase still bound, per cent of control [3]: 100%
kinase still bound, per cent of control (EPHA3 (human)): 97%
kinase still bound, per cent of control (EPHA7 (human)): 100%
kinase still bound, per cent of control (EPHA8 (human)): 100%
kinase still bound, per cent of control (ERBB2 (human)): 100%
kinase still bound, per cent of control (FES (human)): 90%
kinase still bound, per cent of control (FGR (human)): 100%
kinase still bound, per cent of control (FRK (human)): 100%
kinase still bound, per cent of control (MAP3K4 (human)): 85%
kinase still bound, per cent of control (MAPK7 (human)): 100%
kinase still bound, per cent of control (MAPKAPK2 (human)): 96%
kinase still bound, per cent of control (MAPKAPK5 (human)): 100%
kinase still bound, per cent of control (NEK1 (human)): 100%
kinase still bound, per cent of control (NEK6 (human)): 100%
kinase still bound, per cent of control (PAK4 (human)): 100%
kinase still bound, per cent of control (PHKG1 (human)): 100%
kinase still bound, per cent of control (PIK3CA (human)): 100%
kinase still bound, per cent of control [4]: 91%
kinase still bound, per cent of control (PKN1 (human)): 85%
kinase still bound, per cent of control (PTK2B (human)): 100%
kinase still bound, per cent of control (PTK6 (human)): 100%
kinase still bound, per cent of control (RET (human)): 100%
kinase still bound, per cent of control [5]: 100%
kinase still bound, per cent of control [6]: 100%
kinase still bound, per cent of control [7]: 100%
kinase still bound, per cent of control (SIK1 (human)): 100%
kinase still bound, per cent of control (SRPK1 (human)): 100%
kinase still bound, per cent of control (STK10 (human)): 100%
kinase still bound, per cent of control (TNK2 (human)): 100%
kinase still bound, per cent of control (TYRO3 (human)): 100%
kinase still bound, per cent of control (ULK3 (human)): 100%
kinase still bound, per cent of control (ZAP70 (human)): 100%

SMILES: CS(=O)(=O)Nc1ccc(-c2ncc(/C=C3\SC(=N)NC3=O)s2)cc1
kinase still bound, per cent of control (FGR (human)): 26%
kinase still bound, per cent of control (RET (human)): 20%
kinase still bound, per cent of control [5]: 3.4%
kinase still bound, per cent of control (STK10 (human)): 6.8%

SMILES: N=C1NC(=O)/C(=C/c2ccc(-c3csc4ccccc34)o2)S1
kinase still bound, per cent of control (NEK6 (human)): 25%

SMILES: O=C1NC(=S)S/C1=C\c1ccc(-c2cncc3ccccc23)o1
kinase still bound, per cent of control (CAMK2A (human)): 22%
kinase still bound, per cent of control (CDK8 (human)): 10%
kinase still bound, per cent of control (EPHA3 (human)): 17%
kinase still bound, per cent of control (NEK1 (human)): 31%
kinase still bound, per cent of control (NEK6 (human)): 24%
kinase still bound, per cent of control (TNK2 (human)): 34%

Continued, values first:

kinase still bound, per cent of control (BTK (human)): 31%
kinase still bound, per cent of control (CAMK2A (human)): 10%
kinase still bound, per cent of control (CDK8 (human)): 11%
kinase still bound, per cent of control (EPHA3 (human)): 13%
kinase still bound, per cent of control (MAPKAPK5 (human)): 12%
kinase still bound, per cent of control (NEK1 (human)): 33%
kinase still bound, per cent of control (NEK6 (human)): 31%
kinase still bound, per cent of control (PAK4 (human)): 18%
kinase still bound, per cent of control (PHKG1 (human)): 23%
kinase still bound, per cent of control (PKN1 (human)): 28%
kinase still bound, per cent of control [5]: 21%
kinase still bound, per cent of control [6]: 23%
kinase still bound, per cent of control [7]: 16%
kinase still bound, per cent of control (SRPK1 (human)): 15%
SMILES: N=C1NC(=O)/C(=C/c2ccc(-c3cncc4ccccc34)o2)S1

kinase still bound, per cent of control (BMPR2 (human)): 23%
kinase still bound, per cent of control (MAPK7 (human)): 0.1%
kinase still bound, per cent of control (PKN1 (human)): 30%
kinase still bound, per cent of control (TYRO3 (human)): 31%
SMILES: CN1C(=O)[C@H]2CCC[C@H]2N(C2CCCC2)c2nc(Nc3ccc(C(N)=O)cc3)ncc21

kinase still bound, per cent of control (ACVRL1 (human)): 3.6%
kinase still bound, per cent of control [4]: 22%
kinase still bound, per cent of control (SRPK1 (human)): 11%
kinase still bound, per cent of control (STK10 (human)): 26%
SMILES: CS(=O)(=O)Nc1ccc(-c2cncc(/C=C3\SC(=N)NC3=O)c2)cc1

kinase still bound, per cent of control [4]: 21%
SMILES: N=C1NC(=O)/C(=C/c2ccc(-c3ccccc3O)o2)S1

kinase still bound, per cent of control (CAMK2A (human)): 28%
kinase still bound, per cent of control (CDK17 (human)): 28%
kinase still bound, per cent of control (MAPKAPK2 (human)): 25%
kinase still bound, per cent of control (PIK3CA (human)): 9.2%
kinase still bound, per cent of control (ZAP70 (human)): 25%
SMILES: N=C1NC(=O)/C(=C/c2ccc(-c3ccc(C(N)=O)cc3O)o2)S1
